# Literature values as cited in patent US8709515B1, “Nutritional supplement method” (priority 2009, dated 2014).
# Legend:
# albino rats = conditions: fed in the water to albino rats
# rats = conditions: one eye with induced increase in intraocular pressure
# [1] = system: selenite induced cataracts in rats
SMILES,dose above which it may not be safe (cats),light-induced photoreceptor damage (albino rats),retinal neuronal death (rats),progression of cataract [1]
O=C(O)CCCCC1CCSS1 (stereo not drawn) [Alpha lipoic acid],higher than 30 mg/day,–,–,–
"O=C(O[C@@H]1Cc2c(O)cc(O)cc2O[C@@H]1c1cc(O)c(O)c(O)c1)c1cc(O)c(O)c(O)c1 [EGCG, Epigallocatechin gallate]",–,attenuated light-induced photoreceptor damage,attenuated retinal neuronal death,retards the progression of cataract
